We go through 31 compounds from patent US20100105655A1, “NOVEL COMPOUNDS 515” (ASTRAZENECA AB, priority 2008, published 2010).

Structures are written as SMILES.

T1 sequence (P08069 31-1367): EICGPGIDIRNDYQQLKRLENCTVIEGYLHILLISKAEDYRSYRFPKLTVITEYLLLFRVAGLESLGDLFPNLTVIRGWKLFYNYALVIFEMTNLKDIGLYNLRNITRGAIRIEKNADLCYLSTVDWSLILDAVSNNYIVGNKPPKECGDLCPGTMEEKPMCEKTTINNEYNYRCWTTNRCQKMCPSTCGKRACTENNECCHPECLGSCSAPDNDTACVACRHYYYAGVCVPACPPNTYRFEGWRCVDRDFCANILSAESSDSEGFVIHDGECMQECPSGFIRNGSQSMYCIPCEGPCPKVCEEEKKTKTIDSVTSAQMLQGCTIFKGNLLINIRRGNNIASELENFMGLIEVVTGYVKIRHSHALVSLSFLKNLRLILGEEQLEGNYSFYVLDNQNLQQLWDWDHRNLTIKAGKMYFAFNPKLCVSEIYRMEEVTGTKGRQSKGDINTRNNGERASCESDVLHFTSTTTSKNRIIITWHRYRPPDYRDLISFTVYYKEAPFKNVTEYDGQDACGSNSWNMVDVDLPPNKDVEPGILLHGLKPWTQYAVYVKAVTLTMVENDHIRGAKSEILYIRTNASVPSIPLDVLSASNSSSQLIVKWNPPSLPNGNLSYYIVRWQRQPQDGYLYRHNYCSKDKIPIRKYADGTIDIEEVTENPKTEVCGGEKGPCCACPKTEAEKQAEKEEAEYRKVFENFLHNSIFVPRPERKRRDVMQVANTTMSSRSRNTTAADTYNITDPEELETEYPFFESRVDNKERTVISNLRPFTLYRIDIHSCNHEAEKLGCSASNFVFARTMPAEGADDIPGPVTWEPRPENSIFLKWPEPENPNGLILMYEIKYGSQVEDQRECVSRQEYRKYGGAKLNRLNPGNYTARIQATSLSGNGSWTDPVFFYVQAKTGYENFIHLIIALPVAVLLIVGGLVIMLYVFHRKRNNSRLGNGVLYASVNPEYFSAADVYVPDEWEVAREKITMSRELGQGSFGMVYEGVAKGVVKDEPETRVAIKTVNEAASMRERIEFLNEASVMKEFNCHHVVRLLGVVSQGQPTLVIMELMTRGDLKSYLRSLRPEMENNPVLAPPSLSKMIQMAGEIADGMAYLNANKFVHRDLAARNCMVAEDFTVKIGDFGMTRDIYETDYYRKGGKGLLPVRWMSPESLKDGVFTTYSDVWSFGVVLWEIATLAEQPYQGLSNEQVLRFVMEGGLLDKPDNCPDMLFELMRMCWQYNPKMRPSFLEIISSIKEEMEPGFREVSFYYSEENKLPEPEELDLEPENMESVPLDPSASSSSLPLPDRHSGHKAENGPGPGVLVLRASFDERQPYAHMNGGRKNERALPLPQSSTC

The assay has as its target T1, IGFR kinase (Homo sapiens, UniProt P08069).
T1 construct: purchased Millipore
As to the kind of experiment: Enzyme assay (c), IGFR kinase, Caliper LabChip. The assay is classed as biochemical. As to conditions: 30 nM IGFR kinase, 6 uM ATP, 3 uM peptide mix; read-out: IGFR IC50.
The term IC50 denotes the concentration that inhibits the measured activity by half. `COc1cc(N2CCN(CCO)CC2)ccc1Nc1ncc(F)c(-c2cnc3c(F)cccn23)n1` [Example 195, 2-[4-[4-[[5-fluoro-4-(8-fluoroimidazo[1,2-a]pyridin-3-yl)pyrimidin-2-yl]amino]-3-methoxy-phenyl]piperazin-1-yl]ethanol]: the IC50 came out at 0.033 µM. Take `COc1ccc(N2CC[C@H](O)C2)cc1Nc1ncc(Cl)c(-c2cnc3ccccn23)n1` [Example 3.5, (3S)-1-[3-[(5-chloro-4-imidazo[1,2-a]pyridin-3-yl-pyrimidin-2-yl)amino]-4-methoxy-phenyl]pyrrolidin-3-ol]: the IC50 is 0.041 µM.

`COc1cc(N2CCN(C(C)CO)CC2)ccc1Nc1ncc(C)c(-c2cnc3ccccn23)n1` (stereo not shown) [Example 274, 2-[4-[4-[(4-imidazo[1,2-a]pyridin-3-yl-5-methyl-pyrimidin-2-yl)amino]-3-methoxy-phenyl]piperazin-1-yl]propan-1-ol]: the IC50 was determined as 0.014 µM. With `COc1cc(N2CCN(CCO)CC2)ccc1Nc1ncc(Cl)c(-c2cnc3ccc(F)cn23)n1` [Example 263, 2-[4-[4-[[5-chloro-4-(6-fluoroimidazo[1,2-a]pyridin-3-yl)pyrimidin-2-yl]amino]-3-methoxy-phenyl]piperazin-1-yl]ethanol] the figure was 0.007 µM; with `COc1cc(N2CC[C@H](N(C)C)C2)ccc1Nc1ncc(Cl)c(-c2cnc3ccccn23)n1` [Example 3.16, 5-chloro-N-[4-[(3S)-3-dimethylaminopyrrolidin-1-yl]-2-methoxy-phenyl]-4-imidazo[1,2-a]pyridin-3-yl-pyrimidin-2-amine], 0.043 µM.

On to `COc1cc(N2CCN(C(=O)N3CCNCC3)CC2)ccc1Nc1ncc(Cl)c(-c2cnc3ccccn23)n1` [Example 47.3, [4-[4-[(5-chloro-4-imidazo[1,2-a]pyridin-3-yl-pyrimidin-2-yl)amino]-3-methoxy-phenyl]piperazin-1-yl]-piperazin-1-yl-methanone], for which the IC50 came to 0.006 µM. With `COc1cc(N2CCN(C(=O)N3CCOCC3)CC2)ccc1Nc1ncc(Cl)c(-c2cnc3ccccn23)n1` [Example 46, [4-[4-[(5-chloro-4-imidazo[1,2-a]pyridin-3-yl-pyrimidin-2-yl)amino]-3-methoxy-phenyl]piperazin-1-yl]-morpholino-methanone] the figure was 0.013 µM; with `COc1cc(N2CC3CN(C(=O)CN)CC(C2)O3)ccc1Nc1ncc(Cl)c(-c2cnc3c(F)cccn23)n1` [Example 209, 2-amino-1-[7-[4-[[5-chloro-4-(8-fluoroimidazo[1,2-a]pyridin-3-yl)pyrimidin-2-yl]amino]-3-methoxy-phenyl]-9-oxa-3,7-diazabicyclo[3.3.1]nonan-3-yl]ethanone], 0.03 µM. Regarding `COc1ccc(N2CCN(C(N)=O)CC2)cc1Nc1ncc(Cl)c(-c2cnc3ccccn23)n1` [Example 55, 4-[3-[(5-chloro-4-imidazo[1,2-a]pyridin-3-yl-pyrimidin-2-yl)amino]-4-methoxy-phenyl]piperazine-1-carboxamide], the IC50 is 0.033 µM.

On to `COc1cc(N2CCN(CCO)[C@@H](C)C2)ccc1Nc1ncc(F)c(-c2cnc3ccccn23)n1` [Example 273, 2-[(2S)-4-[4-[(5-fluoro-4-imidazo[1,2-a]pyridin-3-yl-pyrimidin-2-yl)amino]-3-methoxy-phenyl]-2-methyl-piperazin-1-yl]ethanol], for which the IC50 was 0.21 µM. The value for `COc1cc2c(cc1Nc1ncc(Cl)c(-c3cnn4ccccc34)n1)NCC2` [Example 155, N-(5-chloro-4-pyrazolo[1,5-a]pyridin-3-yl-pyrimidin-2-yl)-5-methoxy-indolin-6-amine] was 0.12 µM; that for `COc1cc(OC2CN(CCO)C2)ccc1Nc1ncc(Cl)c(-c2cnc3ccccn23)n1` [Example 64, 2-[3-[4-[(5-chloro-4-imidazo[1,2-a]pyridin-3-yl-pyrimidin-2-yl)amino]-3-methoxy-phenoxy]azetidin-1-yl]ethanol] was 0.019 µM. With `COc1cc(C2CCN(C(=O)CO)CC2)ccc1Nc1ncc(C)c(-c2cnc3c(F)cccn23)n1` [Example 198, 1-[4-[4-[[4-(8-fluoroimidazo[1,2-a]pyridin-3-yl)-5-methyl-pyrimidin-2-yl]amino]-3-methoxy-phenyl]-1-piperidyl]-2-hydroxy-ethanone] the figure was 0.026 µM; with `COc1cc(N2CCN(C(=O)[C@@H](C)N)CC2)ccc1Nc1ncc(Cl)c(-c2cnc3ccc(F)cn23)n1` [Example 252, (2R)-2-amino-1-[4-[4-[[5-chloro-4-(6-fluoroimidazo[1,2-a]pyridin-3-yl)pyrimidin-2-yl]amino]-3-methoxy-phenyl]piperazin-1-yl]propan-1-one], 0.007 µM; with `COc1cc(N2CCN(C(C)(C)CO)CC2)ccc1Nc1ncc(F)c(-c2cnc3ccccn23)n1` [Example 228, 2-[4-[4-[(5-fluoro-4-imidazo[1,2-a]pyridin-3-yl-pyrimidin-2-yl)amino]-3-methoxy-phenyl]piperazin-1-yl]-2-methyl-propan-1-ol], 0.024 µM. With `COc1cc(N2CCN(C(=O)[C@@H]3CCCN3)CC2)ccc1Nc1ncc(Cl)c(-c2cnc3ccccn23)n1` [Example 23, [4-[4-[(5-chloro-4-imidazo[1,2-a]pyridin-3-yl-pyrimidin-2-yl)amino]-3-methoxy-phenyl]piperazin-1-yl]-[(2S)-pyrrolidin-2-yl]methanone] the figure was 0.009 µM; with `COc1cc(N2CCN(C(C)=O)CC2)ccc1Nc1ncc(F)c(-c2cnc3ccccn23)n1` [Example 72, 1-[4-[4-[(5-fluoro-4-imidazo[1,2-a]pyridin-3-yl-pyrimidin-2-yl)amino]-3-methoxy-phenyl]piperazin-1-yl]ethanone], 0.096 µM; with `COc1cc(N2CCN(C(C)(C)CO)CC2)ccc1Nc1ncc(C)c(-c2cnc3ccccn23)n1` [Example 229, 2-[4-[4-[(4-imidazo[1,2-a]pyridin-3-yl-5-methyl-pyrimidin-2-yl)amino]-3-methoxy-phenyl]piperazin-1-yl]-2-methyl-propan-1-ol], 0.02 µM. Regarding `COc1cc(N2CCN(C(C)=O)C(C)C2)ccc1Nc1ncc(Cl)c(-c2cnc3ccccn23)n1` (stereo not shown) [Example 3.36, 1-[4-[4-[(5-chloro-4-imidazo[1,2-a]pyridin-3-yl-pyrimidin-2-yl)amino]-3-methoxy-phenyl]-2-methyl-piperazin-1-yl]ethanone], the IC50 is 0.008 µM. With `COc1cc(C=O)ccc1Nc1ncc(Cl)c(-c2cnc3ccccn23)n1` [Example 20A, 4-(5-chloro-4-(imidazo[1,2-a]pyridin-3-yl)pyrimidin-2-ylamino)-3-methoxybenzaldehyde] the figure was 0.068 µM; with `COc1cc(N2CC[C@@H](O)C2)ccc1Nc1ncc(Cl)c(-c2cnc3ccccn23)n1` [Example 3.49, (3R)-1-[4-[(5-chloro-4-imidazo[1,2-a]pyridin-3-yl-pyrimidin-2-yl)amino]-3-methoxy-phenyl]pyrrolidin-3-ol], 0.019 µM. The value for `COc1cc(C2CCNCC2)ccc1Nc1ncc(C)c(-c2cnc3c(F)cccn23)n1` [Example 197, 4-(8-fluoroimidazo[1,2-a]pyridin-3-yl)-N-[2-methoxy-4-(4-piperidyl)phenyl]-5-methyl-pyrimidin-2-amine] was 0.013 µM; that for `COc1cc(N2CCN(CCO)CC2)ccc1Nc1ncc(Br)c(-c2cnc3ccccn23)n1` [Example 115, 2-[4-[4-[(5-bromo-4-imidazo[1,2-a]pyridin-3-yl-pyrimidin-2-yl)amino]-3-methoxy-phenyl]piperazin-1-yl]ethanol] was 0.005 µM.

On to `COc1cc(N2CCN(C(C)=O)CC2)ccc1Nc1ncc(F)c(-c2cnn3ccccc23)n1` [Example 170, 1-[4-[4-[(5-fluoro-4-pyrazolo[1,5-a]pyridin-3-yl-pyrimidin-2-yl)amino]-3-methoxy-phenyl]piperazin-1-yl]ethanone], for which the IC50 was 0.067 µM. With `COc1cc(C2CN(C(C)=O)C2)ccc1Nc1ncc(Cl)c(-c2cnc3ccccn23)n1` [Example 277, 1-[3-[4-[(5-chloro-4-imidazo[1,2-a]pyridin-3-yl-pyrimidin-2-yl)amino]-3-methoxy-phenyl]azetidin-1-yl]ethanone] the figure was 0.016 µM; with `COc1cc(N2CC[C@@H](N)C2)ccc1Nc1ncc(Cl)c(-c2cnc3ccccn23)n1` [Example 71, N-[4-[(3R)-3-aminopyrrolidin-1-yl]-2-methoxy-phenyl]-5-chloro-4-imidazo[1,2-a]pyridin-3-yl-pyrimidin-2-amine], 0.01 µM. The value for `COc1cc(O[C@H]2CCN(C(=O)C(C)O)C2)ccc1Nc1ncc(Cl)c(-c2cnc3ccccn23)n1` (mixture of isomers) [Example 15, 1-[(3S)-3-[4-[(5-chloro-4-imidazo[1,2-a]pyridin-3-yl-pyrimidin-2-yl)amino]-3-methoxy-phenoxy]pyrrolidin-1-yl]-2-hydroxy-propan-1-one] was 0.012 µM; that for `COc1ccc(OC[C@@H]2CCCN2)cc1Nc1ncc(Cl)c(-c2cnc3ccccn23)n1` [Example 6.3, 5-chloro-4-imidazo[1,2-a]pyridin-3-yl-N-[2-methoxy-5-[[(2S)-pyrrolidin-2-yl]methoxy]phenyl]pyrimidin-2-amine] was 0.018 µM. With `COc1cc(N2CCN(C(=O)[C@@H]3CCC(=O)N3)CC2)ccc1Nc1ncc(Cl)c(-c2cnc3ccccn23)n1` [Example 25.1A, (5S)-5-[4-[4-[(5-chloro-4-imidazo[1,2-a]pyridin-3-yl-pyrimidin-2-yl)amino]-3-methoxy-phenyl]piperazine-1-carbonyl]pyrrolidin-2-one] the figure was 0.008 µM; with `COc1cc(C2CCN(CC(=O)N(C)C)CC2)ccc1Nc1ncc(Cl)c(-c2cnc3c(F)cccn23)n1` [Example 216, 2-[4-[4-[[5-chloro-4-(8-fluoroimidazo[1,2-a]pyridin-3-yl)pyrimidin-2-yl]amino]-3-methoxy-phenyl]-1-piperidyl]-N,N-dimethyl-acetamide], 0.002 µM. On to `COc1cc(N2CCN(C(C)(C)CO)CC2)ccc1Nc1ncc(Cl)c(-c2cnn3ccccc23)n1` [Example 230, 2-[4-[4-[(5-chloro-4-pyrazolo[1,5-a]pyridin-3-yl-pyrimidin-2-yl)amino]-3-methoxy-phenyl]piperazin-1-yl]-2-methyl-propan-1-ol], for which the IC50 worked out at 0.005 µM.
